Experiments:
hERG (KCNH2) = hERG (KCNH2) (Homo sapiens, UniProt Q12809); test: Inhibition of human ERG expressed in CHO cells at 10 uM at -80 mV holding potential by whole cell patch clamp assay; format: cell-based; conditions: CHO cells expressing human ERG
[1] = target: T1, Alpha-1A adrenergic receptor (Homo sapiens) (UniProt P35348); test: Binding affinity to human alpha1A adrenoreceptor expressed in membranes assessed as inhibition of [3H]-prazosin binding incubated for 90 mins by scintillation counting method; design: concentration or dose not given beside the values; conditions: Cell membrane
T1 sequence (whole entry): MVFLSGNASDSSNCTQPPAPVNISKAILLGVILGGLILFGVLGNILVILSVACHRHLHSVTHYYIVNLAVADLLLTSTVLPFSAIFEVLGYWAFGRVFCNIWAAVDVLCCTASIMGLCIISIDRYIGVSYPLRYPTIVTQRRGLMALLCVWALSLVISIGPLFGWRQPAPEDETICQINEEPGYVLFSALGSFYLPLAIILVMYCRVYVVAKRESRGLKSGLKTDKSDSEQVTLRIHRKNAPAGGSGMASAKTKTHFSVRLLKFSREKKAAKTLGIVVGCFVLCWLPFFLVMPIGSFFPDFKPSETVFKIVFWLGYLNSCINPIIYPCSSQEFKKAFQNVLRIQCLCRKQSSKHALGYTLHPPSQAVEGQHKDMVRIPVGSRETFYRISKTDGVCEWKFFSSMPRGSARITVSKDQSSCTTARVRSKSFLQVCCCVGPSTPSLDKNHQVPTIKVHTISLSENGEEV

[2] = target: Voltage-gated inwardly rectifying potassium channel KCNH2 (Homo sapiens, UniProt Q12809)
Sequence of Voltage-gated inwardly rectifying potassium channel KCNH2 (Q12809 whole entry): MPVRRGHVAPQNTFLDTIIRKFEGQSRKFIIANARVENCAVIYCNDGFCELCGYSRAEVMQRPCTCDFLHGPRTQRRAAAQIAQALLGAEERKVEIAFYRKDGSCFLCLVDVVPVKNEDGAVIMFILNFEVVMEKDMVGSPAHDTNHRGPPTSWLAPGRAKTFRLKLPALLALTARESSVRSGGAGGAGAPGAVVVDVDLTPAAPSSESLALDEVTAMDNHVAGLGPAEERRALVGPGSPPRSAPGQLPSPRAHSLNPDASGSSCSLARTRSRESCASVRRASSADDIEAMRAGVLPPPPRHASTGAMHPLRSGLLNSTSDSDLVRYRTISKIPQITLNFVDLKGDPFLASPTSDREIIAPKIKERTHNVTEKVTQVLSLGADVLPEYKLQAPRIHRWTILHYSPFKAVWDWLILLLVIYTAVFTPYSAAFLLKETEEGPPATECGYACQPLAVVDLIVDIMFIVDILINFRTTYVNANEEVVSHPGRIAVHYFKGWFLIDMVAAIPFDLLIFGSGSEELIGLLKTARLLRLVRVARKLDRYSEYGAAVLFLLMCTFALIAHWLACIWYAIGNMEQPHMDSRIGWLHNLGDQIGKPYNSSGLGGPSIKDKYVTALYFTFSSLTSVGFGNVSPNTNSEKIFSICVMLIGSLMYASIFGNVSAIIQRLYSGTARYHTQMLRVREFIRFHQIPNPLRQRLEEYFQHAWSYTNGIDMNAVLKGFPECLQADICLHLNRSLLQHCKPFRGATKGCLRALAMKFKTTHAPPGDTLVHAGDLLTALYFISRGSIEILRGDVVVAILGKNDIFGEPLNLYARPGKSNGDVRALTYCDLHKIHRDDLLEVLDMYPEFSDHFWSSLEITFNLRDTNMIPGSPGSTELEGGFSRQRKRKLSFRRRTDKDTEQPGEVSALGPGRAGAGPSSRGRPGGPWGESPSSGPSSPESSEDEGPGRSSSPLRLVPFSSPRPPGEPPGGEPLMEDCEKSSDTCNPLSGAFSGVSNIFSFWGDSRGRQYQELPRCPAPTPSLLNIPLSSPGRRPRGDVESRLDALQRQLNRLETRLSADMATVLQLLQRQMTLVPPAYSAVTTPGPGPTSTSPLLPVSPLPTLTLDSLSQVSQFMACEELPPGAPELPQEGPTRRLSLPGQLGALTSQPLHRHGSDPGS
Description: Inhibition of human ERG expressed in CHO cells at -80 mV holding potential by whole cell patch clamp assay

Mu-type opioid receptor [3] = target: T2, Mu-type opioid receptor (Homo sapiens, UniProt P35372); test: Agonist activity at human MOR expressed in CHOK1 cells assessed as […] of cAMP accumulation at 1 uM incubated for 45 mins by HTRF assay; format: functional, cell-based; conditions: CHO-K1
T2 sequence (P35372 whole entry): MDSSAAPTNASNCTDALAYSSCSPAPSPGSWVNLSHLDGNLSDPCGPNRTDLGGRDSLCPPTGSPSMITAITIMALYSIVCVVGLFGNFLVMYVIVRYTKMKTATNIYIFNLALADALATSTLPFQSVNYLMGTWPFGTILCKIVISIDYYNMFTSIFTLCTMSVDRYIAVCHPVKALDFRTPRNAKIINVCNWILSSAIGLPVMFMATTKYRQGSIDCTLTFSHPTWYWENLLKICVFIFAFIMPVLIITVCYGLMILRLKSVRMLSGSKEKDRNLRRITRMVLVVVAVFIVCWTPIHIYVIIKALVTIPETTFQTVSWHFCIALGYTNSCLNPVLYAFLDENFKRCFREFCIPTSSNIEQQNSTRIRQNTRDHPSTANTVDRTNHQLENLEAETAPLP

Mu-type opioid receptor [4] = target: T2, Mu-type opioid receptor; test: Displacement of [3H]-DAMGO from human MOR expressed in CHOK1 cell membranes at 1 uM incubated for 60 mins by liquid scintillation counting method; conditions: CHO-K1, Cell membrane
[5] = target: T3, Sigma non-opioid intracellular receptor 1 (Homo sapiens, UniProt Q99720); test: Displacement of 3H](+)-pentazocine from human sigma1 receptor expressed in HEK293 cell membranes incubated for 120 mins by liquid scintillation counting method; design: species or system Cell membrane
T3 sequence (Q99720 whole entry): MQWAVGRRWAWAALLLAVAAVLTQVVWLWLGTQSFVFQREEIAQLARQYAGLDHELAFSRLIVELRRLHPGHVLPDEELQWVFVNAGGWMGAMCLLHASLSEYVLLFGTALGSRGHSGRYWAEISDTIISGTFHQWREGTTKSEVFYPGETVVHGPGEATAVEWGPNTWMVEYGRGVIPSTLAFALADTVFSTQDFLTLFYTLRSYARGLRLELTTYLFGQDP

Mu-type opioid receptor [6] = target: T2, Mu-type opioid receptor; test: Agonist activity at human MOR expressed in CHOK1 cells assessed as […] of cAMP accumulation incubated for 45 mins by HTRF assay; format: functional, cell-based, CHO-K1
Mu-type opioid receptor [7] = target: T2, Mu-type opioid receptor; test: Displacement of [3H]-DAMGO from human MOR expressed in CHOK1 cell membranes incubated for 60 mins by liquid scintillation counting method; design: species or system CHO-K1, Cell membrane
Mu-type opioid receptor [8] = target: T2, Mu-type opioid receptor; test: Agonist activity at human MOR expressed in CHOK1 cells assessed as […] of cAMP accumulation incubated for 45 mins by HTRF assay relative to DAMGO; format: functional, cell-based; conditions: CHO-K1, filed as agonist
Mu-type opioid receptor [9] = target: T2, Mu-type opioid receptor; test: Displacement of [3H]-DAMGO from human MOR expressed in CHOK1 cell membranes at 10 uM incubated for 60 mins by liquid scintillation counting method; conditions: CHO-K1, Cell membrane
Mu-type opioid receptor [10] = target: T2, Mu-type opioid receptor; test: Agonist activity at human MOR expressed in CHOK1 cells assessed as […] of cAMP accumulation at 10 uM incubated for 45 mins by HTRF assay; format: functional, cell-based; conditions: CHO-K1
[11] = Toxicity in CD1 mouse assessed as inhibition of intestinal transit by measuring percentage of distance traveled by charcoal meal at 20 mg/kg, po; format: organism-based; conditions: in vivo
Mus musculus = test: Antinociceptive activity in CD1 mouse PSNL model assessed as reduction in mechanical allodynia by measuring decrease in the pressure required to elicit withdrawal of the ipsilateral paw after von Frey filament stimulation at 1.25 mg/kg, ip BID for 11 days from day 13 to day 22; format: functional; conditions: 264 h, time 11 day
[12] = target: T3, Sigma non-opioid intracellular receptor 1; test: Displacement of 3H](+)-pentazocine from human sigma1 receptor expressed in HEK293 cell membranes at 10 uM incubated for 120 mins by liquid scintillation counting method; conditions: Cell membrane

Sequence of hERG (KCNH2) (Q12809 whole entry): as the sequence (Q12809 whole entry) above

Structure (SMILES)	inhibition at 10 µM (hERG (KCNH2)) [%]	inhibition [1] [%]	IC50 [2] [µM]	inhibition (Mu-type opioid receptor [3]) [%]	inhibition (Mu-type opioid receptor [4]) [%]	Ki [5] [nM]	EC50 (Mu-type opioid receptor [6]) [nM]	Ki (Mu-type opioid receptor [7]) [nM]	Emax (Mu-type opioid receptor [8]) [%]	inhibition (Mu-type opioid receptor [9]) [%]	inhibition (Mu-type opioid receptor [10]) [%]	Activity [11]	inhibition in vivo at 1.25 mg/kg (Mus musculus) [%]	inhibition [12] [%]
CCN1CC2(CCN(CCc3cc(F)ccc3F)CC2)O[C@@H](C)C1=O	< 50	9	> 10											
CC1OC2(CCN(CCc3ccccc3)CC2)CN(CCc2ccccc2F)C1=O (stereo unspecified)	< 50	7	> 10	< 50	< 50	892	> 1000	> 1000						
CC[C@H]1OC2(CCN(CCc3ccccc3)CC2)CN(C)C1=O		13	6.6			139	505	192	90					
CCN1CC2(CCN(CCc3cccc(F)c3)CC2)O[C@H](C)C1=O		42				64	56	56	83					
CC1OC2(CCN(CCc3ccccc3)CC2)CN(CCc2ccccc2)C1=O (stereo unspecified)		58	0.2				22	20	94					
CN1CC2(CCN(CCc3ccccc3)CC2)OC2(CC2)C1=O		41	3.6			161	442	221	85					
C[C@@H]1OC2(CCN(CCc3ccccc3)CC2)CN(C)C1=O		6			< 50	165	1780	> 1000						
CCN1CC2(CCN(CCc3cccc(F)c3F)CC2)O[C@H](C)C1=O	< 50	8	> 10			556	10	22	90					
CC1OC2(CCN(CCc3ccccc3)CC2)CN(C(C)C)C1=O (stereo unspecified)		35	3.9			30	21	33	100					
CC1OC2(CCN(CCc3ccccc3)CC2)CN(Cc2ccccc2)C1=O (stereo unspecified)		67	0.1			10	2	2	97					
C[C@H]1OC2(CCN(CCc3ccccc3)CC2)CN(C)C1=O	< 50	19	> 10			277	319	91	83					
O=C1N(c2cccnc2C(F)(F)F)CC2(CCN(CCc3ccccc3F)CC2)OC12CC2	< 50	57												
CCN1CC2(CCN(CCc3ccccn3)CC2)OC2(CC2)C1=O		0				783	1500	> 1000		< 50				
CN1CC2(CCN(CCc3ccccc3)CC2)OC(C)(C)C1=O		37			< 50	50	624	> 1000						
CC1OC2(CCN(CCc3ccccc3)CC2)CN(c2ccccc2)C1=O (stereo unspecified)		72							85					
CCN1CC2(CCN(CCc3c(F)cccc3F)CC2)O[C@H](C)C1=O		10				609	16	21	95					
Cc1cc(OCCN2CCOCC2)nn1-c1ccc2ccccc2c1	< 50									< 50	< 50			
CCN1CC2(CCN(CCc3ccc(F)cc3)CC2)O[C@H](C)C1=O		21	1.5			76	108	164	81					
C[C@H]1OC2(CCN(CCc3ccccc3)CC2)CN(C2CC2)C1=O		51	4.5				7	6	91					
COc1ccc2c3c1O[C@H]1C(=O)CC[C@@]4(O)[C@@H](C2)N(C)CC[C@]314 [OXYCODONE]	< 50		> 10									Toxic	51	< 50
CN1CC2(CCN(CCc3ccccc3)CC2)OCC1=O		36		< 50	< 50	282	> 1000	> 1000						
CN1CC2(CCN(CCc3ccccc3)CC2)OC(c2ccccc2)C1=O (stereo unspecified)		26		< 50	< 50	242	> 1000	> 1000						
CCN1CC2(CCN(CCc3ccc(F)cc3F)CC2)O[C@H](C)C1=O		11	2.5			94	53	62	92					
CC(C)C1OC2(CCN(CCc3ccccc3)CC2)CN(C)C1=O (stereo unspecified)		29	6.2			122	174	115	85					
CCN1CC2(CCN(CCc3ccccc3F)CC2)O[C@H](C)C1=O		15	4			68	24	18	84					
CCN1CC2(CCN(CCc3ccccc3)CC2)O[C@H](C)C1=O		14	4.7			66	49	26	83					
CCN1CC2(CCN(CCc3ccccc3)CC2)OC(C)C1=O (stereo unspecified)		27	3.1			43	65	41	84					
CC1OC2(CCN(CCc3ccccc3)CC2)CN(C)C1=O (stereo unspecified)	< 50	16	> 10			142	787	156	79					

Source: ChEMBL document CHEMBL4673253, “Discovery of EST73502, a Dual μ-Opioid Receptor Agonist and σ Receptor Antagonist Clinical Candidate for the Treatment of Pain” (J Med Chem, 2020)
